Experimental data from ChEMBL document CHEMBL1154047, “Chiral gossypol derivatives: evaluation of their anticancer activity and molecular modeling” (Eur J Med Chem, 2009).
Values joined by “and” are separate entries in the source; they are usually repeats but may differ in a detail not shown here. Equal values may be shown once.

How the values were obtained:
HeLa [1] = assay: Anticancer activity against human HeLa cells after 48 hrs by MTT assay; format: functional, cell-based
[2] = Anticancer activity against human U87 cells after 48 hrs by MTT assay; format: functional, cell-based, U-87MG ATCC
[3] = Anticancer activity against human M85 cells after 48 hrs by MTT assay; format: functional, cell-based
HeLa [4] = assay: Ratio of compound IC50 to (-)-gossypol IC50 for human HeLa cells; format: functional
HeLa [5] = assay: Ratio of compound IC50 to cisplatin IC50 for human HeLa cells; format: functional
[6] = Ratio of compound IC50 to (-)-gossypol IC50 for human U87 cells; format: functional, U-87MG ATCC
[7] = Ratio of compound IC50 to (-)-gossypol IC50 for human M85 cells; format: functional
[8] = Ratio of compound IC50 to cisplatin IC50 for human U87 cells; format: functional, U-87MG ATCC
[9] = Ratio of compound IC50 to cisplatin IC50 for human M85 cells; format: functional

IC50 (HeLa [1]; Homo sapiens, HeLa, 48 h) [µM]	IC50 (HeLa [1]; hela) [µM]	SMILES	IC50 ([2]; Homo sapiens, U-87 MG, 48 h) [µM]	IC50 ([3]; Homo sapiens, M85, 48 h) [µM]	Ratio IC50 (HeLa [4])	Ratio IC50 (HeLa [5])	IC50 ([2]; u-87mg atcc) [µM]	IC50 ([3]; m85)	Ratio IC50 [6]	Ratio IC50 [7]	Ratio IC50 [8]	Ratio IC50 [9]
51.8		Cc1cc2c(c(O)c1-c1c(C)cc3c(c1O)/C(=C/NCCc1ccccc1)C(=O)C(O)=C3C(C)C)/C(=C/NCCc1ccccc1)C(=O)C(O)=C2C(C)C (stereo in doubt; 3a)	> 80	> 80	2.91	4.11						
	11.4	COC(=O)[C@H](Cc1ccc(O)cc1)N/C=C1\C(=O)C(O)=C(C(C)C)c2cc(C)c(-c3c(C)cc4c(c3O)/C(=C/N[C@@H](Cc3ccc(O)cc3)C(=O)OC)C(=O)C(O)=C4C(C)C)c(O)c21 (stereo in doubt; 8b)			0.64	0.9	14.5	16.3 µM	0.48	0.89	0.85	1.09
21.8		COC(=O)[C@H](Cc1ccc(O)cc1)N/C=C1\C(=O)C(O)=C(C(C)C)c2cc(C)c(-c3c(C)cc4c(c3O)/C(=C/N[C@@H](Cc3ccc(O)cc3)C(=O)OC)C(=O)C(O)=C4C(C)C)c(O)c21 (stereo in doubt; 8a)			1.22	1.73	32.1	52.4 µM	1.06	2.84	1.88	3.52
	8.7	Cc1cc2c(c(O)c1-c1c(C)cc3c(c1O)/C(=C/N[C@H](CO)[C@H](O)c1ccc([N+](=O)[O-])cc1)C(=O)C(O)=C3C(C)C)/C(=C/N[C@H](CO)[C@H](O)c1ccc([N+](=O)[O-])cc1)C(=O)C(O)=C2C(C)C (stereo in doubt; 1b)			0.49	0.69	13.3	< 2.5 µM	0.44	<0.14	0.78	<0.17
	12.5	Cc1cc2c(c(O)c1-c1c(C)cc3c(c1O)/C(=C/NCCCO)C(=O)C(O)=C3C(C)C)/C(=C/NCCCO)C(=O)C(O)=C2C(C)C (stereo in doubt; 4b)			0.7	0.99	12.1	5.4 µM	0.4	0.29	0.71	0.36
73.7		Cc1cc2c(c(O)c1-c1c(C)cc3c(c1O)/C(=C/Nc1ccc(Br)cc1)C(=O)C(O)=C3C(C)C)/C(=C/Nc1ccc(Br)cc1)C(=O)C(O)=C2C(C)C (stereo in doubt; 6a)	> 80	> 80	4.14	5.85						
	49.2	Cc1cc2c(c(O)c1-c1c(C)cc3c(c1O)/C(=C/Nc1ccc(Br)cc1)C(=O)C(O)=C3C(C)C)/C(=C/Nc1ccc(Br)cc1)C(=O)C(O)=C2C(C)C (stereo in doubt; 6b)			2.76	3.9		78.4 µM		4.26		5.26
> 80		COC(=O)[C@H](Cc1c[nH]c2ccccc12)N/C=C1\C(=O)C(O)=C(C(C)C)c2cc(C)c(-c3c(C)cc4c(c3O)/C(=C/N[C@@H](Cc3c[nH]c5ccccc35)C(=O)OC)C(=O)C(O)=C4C(C)C)c(O)c21 (stereo in doubt; 9a)	> 80	> 80								
	69	COC(=O)[C@H](Cc1ccccc1)N/C=C1\C(=O)C(O)=C(C(C)C)c2cc(C)c(-c3c(C)cc4c(c3O)/C(=C/N[C@@H](Cc3ccccc3)C(=O)OC)C(=O)C(O)=C4C(C)C)c(O)c21 (stereo in doubt; 7b)			3.88	5.48		64.4 µM		3.5		4.32
	13.5	Cc1cc2c(c(O)c1-c1c(C)cc3c(c1O)/C(=C/NC1CC1)C(=O)C(O)=C3C(C)C)/C(=C/NC1CC1)C(=O)C(O)=C2C(C)C (stereo in doubt; 5b)			0.76	1.07	32.4	17.5 µM	1.07		1.89	
> 80		COC(=O)[C@H](Cc1ccccc1)N/C=C1\C(=O)C(O)=C(C(C)C)c2cc(C)c(-c3c(C)cc4c(c3O)/C(=C/N[C@@H](Cc3ccccc3)C(=O)OC)C(=O)C(O)=C4C(C)C)c(O)c21 (stereo in doubt; 7a)	> 80	> 80								
10.7		Cc1cc2c(c(O)c1-c1c(C)cc3c(c1O)/C(=C/NCCCO)C(=O)C(O)=C3C(C)C)/C(=C/NCCCO)C(=O)C(O)=C2C(C)C (stereo in doubt; 4a)			0.6	0.85	29	21.1 µM	0.96	1.15	1.7	1.42
	14.7	Cc1cc2c(c(O)c1-c1c(C)cc3c(c1O)/C(=C/N[C@H](CO)Cc1ccccc1)C(=O)C(O)=C3C(C)C)/C(=C/N[C@H](CO)Cc1ccccc1)C(=O)C(O)=C2C(C)C (stereo in doubt; 2b)			0.83	1.17	29.3	15.5 µM	0.97	0.84	1.71	1.04
	55.9	Cc1cc2c(c(O)c1-c1c(C)cc3c(c1O)/C(=C/NC1CC1)C(=O)C(O)=C3C(C)C)/C(=C/NC1CC1)C(=O)C(O)=C2C(C)C (stereo in doubt; 5a)		17.4	3.14	4.44	> 80			0.95		1.17
	17.1	Cc1cc2c(c(O)c1-c1c(C)cc3c(c1O)/C(=C/NC(C)C)C(=O)C(O)=C3C(C)C)/C(=C/NC(C)C)C(=O)C(O)=C2C(C)C (stereo in doubt; 10b)			0.96	1.36	24.4	30.4 µM	0.81	1.66	1.43	2.04
	19.6	Cc1cc2c(c(O)c1-c1c(C)cc3c(c1O)/C(=C/N[C@H](CO)[C@H](O)c1ccc([N+](=O)[O-])cc1)C(=O)C(O)=C3C(C)C)/C(=C/N[C@H](CO)[C@H](O)c1ccc([N+](=O)[O-])cc1)C(=O)C(O)=C2C(C)C (stereo in doubt; 1a)			1.1	1.56	30.6	19 µM	1.01	1.03	1.79	1.28
23.8		Cc1cc2c(c(O)c1-c1c(C)cc3c(c1O)/C(=C/NC(C)C)C(=O)C(O)=C3C(C)C)/C(=C/NC(C)C)C(=O)C(O)=C2C(C)C (stereo in doubt; 10a)	29.1	34.2	1.34	1.88			0.96	1.86	1.7	2.3
	39.9	Cc1cc2c(c(O)c1-c1c(C)cc3c(c1O)/C(=C/NCCc1ccccc1)C(=O)C(O)=C3C(C)C)/C(=C/NCCc1ccccc1)C(=O)C(O)=C2C(C)C (stereo in doubt; 3b)			2.24	3.17						
26.5		Cc1cc2c(c(O)c1-c1c(C)cc3c(c1O)/C(=C/N[C@H](CO)Cc1ccccc1)C(=O)C(O)=C3C(C)C)/C(=C/N[C@H](CO)Cc1ccccc1)C(=O)C(O)=C2C(C)C (stereo in doubt; 2a)	29.5	21.5	1.49	2.1			0.98	1.17	1.73	1.44
		COC(=O)[C@H](Cc1c[nH]c2ccccc12)N/C=C1\C(=O)C(O)=C(C(C)C)c2cc(C)c(-c3c(C)cc4c(c3O)/C(=C/N[C@@H](Cc3c[nH]c5ccccc35)C(=O)OC)C(=O)C(O)=C4C(C)C)c(O)c21 (stereo in doubt; 9b)						52.3 µM		2.84		3.51

SMILES	IC50 (HeLa [1]; Homo sapiens, HeLa, 48 h) [µM]	IC50 (HeLa [1]; hela) [µM]	IC50 ([2]; Homo sapiens, U-87 MG, 48 h) [µM]	IC50 ([3]; Homo sapiens, M85, 48 h) [µM]	Ratio IC50 (HeLa [4])	Ratio IC50 (HeLa [5])	IC50 ([2]; u-87mg atcc) [µM]	IC50 ([3]; m85)	Ratio IC50 [6]	Ratio IC50 [7]	Ratio IC50 [8]	Ratio IC50 [9]
COc1c(OC)c2c3c(c(-c4c(C)cc5c(C(C)C)c(OC)c(OC)c6c5c4OC6OC)c(C)cc3c1C(C)C)OC2OC (stereo not drawn) [(-)-GOSSYPOL HEXAMETHYL ETHER]	> 80		> 80	> 80								
Cc1cc2c(C(C)C)c(O)c(O)c(C=O)c2c(O)c1-c1c(C)cc2c(C(C)C)c(O)c(O)c(C=O)c2c1O [GOSSYPOL]	17.8	31.3	30.2		1 and 1.76	1.41 and 2.48	59.6	18.4 µM and 39.7 µM	1 and 1.97	1 and 2.16	1.77 and 3.49	1.23 and 2.66
CC1=C(C2=C(C)C(=O)c3c(c(C=O)c(O)c(O)c3C(C)C)C2=O)C(=O)c2c(C=O)c(O)c(O)c(C(C)C)c2C1=O [GOSSYPOLONE]	23.3		26.1	28.3	1.31	1.85			0.86	1.54	1.53	1.9
Cc1cc2c(C(C)C)c(O)c(O)cc2c(O)c1-c1c(C)cc2c(C(C)C)c(O)c(O)cc2c1O [APOGOSSYPOL]	25.5	14.1	35.5	> 80	1.43 and 0.79	2.02 and 1.12	28.5	61.2 µM	1.17 and 0.94	3.33	2.08 and 1.67	4.11
